The record followed here is patent US20120220662A1, “PHYTOCEUTICAL COMPOSITIONS FOR PETS” (BIOKAB, S.A. DE C.V., priority 2009, published 2012).

The nature of the test: Accelerated Oxidization Tests (anti-oxidizing ability, peroxides). The conditions noted are these: 200 ppm (extract: Nejayote 1000 ppm + 200 ppm Pure Ferulic Acid). On the procedure:
The tests of anti-oxidizing ability of the compositions in examples 1, 2 and 3. Said anti-oxidizing ability is the ability which conveys, to a considerable extent, the phytoceutical properties of our composition.
The determination was performed by AOAC Official Method 965.33/(AOCS Method Cd 8-53) 2000 AOAC International.

On to `COc1cc(/C=C/C(=O)O)ccc1O` [Pure Ferulic Acid, ferulic acid], for which the “Accelerated Oxidization Tests (peroxides)” value came to 0.00 Meq/Kg (Time 0 Hs); 0.00 Meq/Kg (Time 4 Hs); 0.00 Meq/Kg (Time 8 Hs); 0.00 Meq/Kg (Time 16 Hs); 0.00 Meq/Kg (Time 24 Hs); 3.17 Meq/Kg (Time 32 Hs). Further, the “Accelerated Oxidization Tests (peroxides)” value is, setting by setting: (Time 40 Hs) 4.19 Meq/Kg; (Time 48 Hs) 7.25 Meq/Kg; (Time 56 Hs) 13.61 Meq/Kg; (Time 64 Hs) 20.18 Meq/Kg; (Time 72 Hs) 21.12 Meq/Kg; (Time 80 Hs) 24.19 Meq/Kg. Also, the “Accelerated Oxidization Tests (peroxides)” value runs as follows: (Time 88 Hs) 31.16 Meq/Kg; (Time 96 Hs) 36.19 Meq/Kg; (Time 104 Hs) 51.14 Meq/Kg; (Time 112 Hs) 31.05 Meq/Kg; (Time 120 Hs) 21.05 Meq/Kg; (Time 128 Hs) 0.00 Meq/Kg.

On to `COc1ccc(O)c(C(C)(C)C)c1` [pure BHA, Butylated Hydroxy Anisole], for which the “Accelerated Oxidization Tests (peroxides)” value is, setting by setting: (Time 0 Hs) 0.00 Meq/Kg; (Time 4 Hs) 0.00 Meq/Kg; (Time 8 Hs) 0.00 Meq/Kg; (Time 16 Hs) 0.00 Meq/Kg; (Time 24 Hs) 0.00 Meq/Kg; (Time 32 Hs) 0.00 Meq/Kg. The “Accelerated Oxidization Tests (peroxides)” value runs as follows: (Time 40 Hs) 0.00 Meq/Kg; (Time 48 Hs) 0.60 Meq/Kg; (Time 56 Hs) 0.68 Meq/Kg; (Time 64 Hs) 1.09 Meq/Kg; (Time 72 Hs) 0.91 Meq/Kg; (Time 80 Hs) 1.89 Meq/Kg. Further, the “Accelerated Oxidization Tests (peroxides)” value by setting is: (Time 88 Hs) 8.03 Meq/Kg; (Time 96 Hs) 41.94 Meq/Kg; (Time 104 Hs) 45.11 Meq/Kg; (Time 112 Hs) 36.12 Meq/Kg; (Time 120 Hs) 24.10 Meq/Kg; (Time 128 Hs) 6.16 Meq/Kg.
